# Molecular target: T1, HIF-PHD2 (Homo sapiens, UniProt Q9GZT9)
# T1 construct: FLAG-tagged full length PHD2 expressed in and purified from baculovirus-infected Sf9 cells; FLAG; made in house; host or cells: baculovirus-infected Sf9 cells
# Test: Assay for HIF-PHD2 Catalytic Activity (PHD2 Binding Activity)
# Format: biochemical
# Settings: not given
# T1 sequence (Q9GZT9 whole entry): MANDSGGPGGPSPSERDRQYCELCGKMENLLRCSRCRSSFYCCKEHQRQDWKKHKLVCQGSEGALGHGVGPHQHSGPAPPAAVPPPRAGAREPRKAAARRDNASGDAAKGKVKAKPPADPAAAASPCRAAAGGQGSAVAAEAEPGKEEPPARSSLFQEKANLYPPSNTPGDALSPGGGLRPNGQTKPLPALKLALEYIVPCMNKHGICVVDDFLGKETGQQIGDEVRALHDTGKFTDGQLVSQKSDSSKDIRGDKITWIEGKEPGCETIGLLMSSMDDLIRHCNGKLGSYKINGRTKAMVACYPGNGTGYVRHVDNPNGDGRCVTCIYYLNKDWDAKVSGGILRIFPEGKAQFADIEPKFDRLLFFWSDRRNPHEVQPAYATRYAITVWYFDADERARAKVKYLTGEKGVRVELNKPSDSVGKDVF
row,Structure (SMILES),IC50 [nM]
1,"CC(C)(C)OC(=O)CN1CCC2(CC1)C(=O)N(c1ccc(-c3ccccc3)cc1)C(=O)N2c1cnccn1 [Compound 2-2, tert-butyl (3-biphenyl-4-yl-2,4-dioxo-1-pyrazin-2-yl-1,3,8-triazaspiro[4.5]dec-8-yl)acetate]",> 50
2,"O=C(O)CN1CCC2(CC1)C(=O)N(c1ccc(-c3ccccc3)cc1)C(=O)N2c1cnccn1 [Compound 2-3, (3-biphenyl-4-yl-2,4-dioxo-1-pyrazin-2-yl-1,3,8-triazaspiro[4.5]dec-8-yl)acetic acid]",0.5 to 20
3,"O=C(O)CN1CCC2(CC1)C(=O)N(c1ccc(-c3ccccc3)cc1)C(=O)N2c1cncnc1 [Compound 2-4, (3-biphenyl-4-yl-2,4-dioxo-1-pyrimidin-5-yl-1,3,8-triazaspiro[4.5]dec-8-yl)acetic acid]",20 to 50
4,"O=C(O)CN1CCC2(CC1)C(=O)N(c1ccc(-c3ccccc3)cc1)C(=O)N2c1ncccn1 [Compound 2-5, (3-biphenyl-4-yl-2,4-dioxo-1-pyrimidin-2-yl-1,3,8-triazaspiro[4.5]dec-8-yl)acetic acid]",0.5 to 20
5,"COc1ccnc(N2C(=O)N(c3ccc(-c4ccccc4)cc3)C(=O)C23CCN(CC(=O)O)CC3)n1 [Compound 2-6, [3-biphenyl-4-yl-1-(4-methoxypyrimidin-2-yl)-2,4-dioxo-1,3,8-triazaspiro[4.5]dec-8-yl]acetic acid]",0.5 to 20
6,"CCOC(=O)C1CN(Cc2ncccc2C)CCC12C(=O)N(c1ccc(-c3ccccc3)cc1)C(=O)N2c1nccc(OC)n1 (stereo not drawn) [Compound 3-2, ethyl 3-biphenyl-4-yl-1-(4-methoxypyrimidin-2-yl)-8-[(3-methylpyridin-2-yl)methyl]-2,4-dioxo-1,3,8-triazaspiro[4.5]decane-6-carboxylate]",0.5 to 20
7,"CCOC(=O)C1CN(Cc2ncccc2C)CCC12C(=O)N(c1ccc(-c3ccccc3)cc1)C(=O)N2c1nccc(O)n1 (stereo not drawn) [Compound 3-3, ethyl 3-biphenyl-4-yl-1-(4-hydroxypyrimidin-2-yl)-8-[(3-methylpyridin-2-yl)methyl]-2,4-dioxo-1,3,8-triazaspiro[4.5]decane-6-carboxylate]",0.5 to 20
8,"Cc1cccnc1CN1CCC2(C(=O)N(c3ccc(-c4ccccc4)cc3)C(=O)N2c2nccc(O)n2)C(C(=O)O)C1 (stereo not drawn) [Compound 3-4, 3-biphenyl-4-yl-1-(4-hydroxypyrimidin-2-yl)-8-[(3-methylpyridin-2-yl)methyl]-2,4-dioxo-1,3,8-triazaspiro[4.5]decane-6-carboxylic acid]",0.5 to 20
9,"CCOC(=O)C1CN(Cc2ncccc2C)CCC12C(=O)N(c1ccc(-c3ccccc3)cc1)C(=O)N2c1cc(O)ncn1 (stereo not drawn) [Compound 3-6, Ethyl 3-biphenyl-4-yl-1-(6-hydroxypyrimidin-4-yl)-8-[(3-methylpyridin-2-yl)methyl]-2,4-dioxo-1,3,8-triazaspiro[4.5]decane-6-carboxylate]",0.5 to 20
10,"Cc1cccnc1CN1CCC2(C(=O)N(c3ccc(-c4ccccc4)cc3)C(=O)N2c2cc(O)ncn2)C(C(=O)O)C1 (stereo not drawn) [Compound 3-7, 3-biphenyl-4-yl-1-(6-hydroxypyrimidin-4-yl)-8-[(3-methylpyridin-2-yl)methyl]-2,4-dioxo-1,3,8-triazaspiro[4.5]decane-6-carboxylic acid]",0.5 to 20
11,"Cc1cccnc1CN1CCC2(C(=O)N(c3ccc(-c4ccccc4)cc3)C(=O)N2c2ncccn2)C(C(=O)O)C1 (stereo not drawn) [Compound 3-8, 3-biphenyl-4-yl-8-[(3-methylpyridin-2-yl)methyl]-2,4-dioxo-1-pyrimidin-2-yl-1,3,8-triazaspiro[4.5]decane-6-carboxylic acid]",0.5 to 20
12,"CCOC(=O)C1CN(Cc2ncccc2C)CCC12C(=O)N(c1ccc(-c3ccccc3)cc1)C(=O)N2c1cc(OC)ncn1 (stereo not drawn) [Compound 3-9, Ethyl 3-biphenyl-4-yl-1-(6-methoxypyrimidin-4-yl)-8-[(3-methylpyridin-2-yl)methyl]-2,4-dioxo-1,3,8-triazaspiro[4.5]decane-6-carboxylate]",0.5 to 20
13,"Cc1cncc(N2C(=O)N(c3ccc(-c4ccc(C(=O)O)cc4C)cc3)C(=O)C23CCN(Cc2ncccc2C)CC3)n1 [Compound 7-6, 2-methyl-4′-{1-(6-methylpyrazin-2-yl)-8-[(3-methylpyridin-2-yl)methyl]-2,4-dioxo-1,3,8-triazaspiro[4.5]dec-3-yl}biphenyl-4-carboxylic acid]",0.5 to 20
14,"Cc1cncc(N2C(=O)N(c3ccc(-c4ccc(C(=O)O)cc4)cc3)C(=O)C23CCN(Cc2ncccc2C)CC3)n1 [Compound 7-7, 4′-{1-(6-methylpyrazin-2-yl)-8-[(3-methylpyridin-2-yl)methyl]-2,4-dioxo-1,3,8-triazaspiro[4.5]dec-3-yl}biphenyl-4-carboxylic acid]",0.5 to 20
15,"Cc1cc(N2C(=O)N(c3ccc(-c4ccc(C(=O)O)cc4)cc3)C(=O)C23CCN(Cc2ncccc2C)CC3)ncn1 [Compound 7-9, 4′-[8-[(3-methylpyridin-2-yl)methyl]-1-(6-methylpyrimidin-4-yl)-2,4-dioxo-1,3,8-triazaspiro[4.5]dec-3-yl]biphenyl-4-carboxylic acid]",0.5 to 20
16,"COc1cc(N2C(=O)N(c3ccc(-c4ccc(C5CC(=O)NN5)cc4)cc3)C(=O)C23CCN(Cc2ncccc2C)CC3)ncn1 (stereo not drawn) [Compound 7-13, 1-(6-methoxypyrimidin-4-yl)-8-[(3-methylpyridin-2-yl)methyl]-3-[4′-(5-oxopyrazolidin-3-yl)biphenyl-4-yl]-1,3,8-triazaspiro[4.5] decane-2,4-dione]",0.5 to 20
17,"Cc1cccnc1CN1CCC2(CC1)C(=O)N(c1ccc(Br)cc1)C(=O)N2c1cc(-c2ccc(C(=O)O)cc2)ncn1 [Compound 7-15, 4-(6-{3-(4-bromophenyl)-8-[(3-methylpyridin-2-yl)methyl]-2,4-dioxo-1,3,8-triazaspiro[4.5]dec-1-yl}pyrimidin-4-yl)benzoic acid]",0.5 to 20
18,"COC(=O)c1ccc(-c2ccc(N3C(=O)N(c4ccncn4)C4(CCN(Cc5ncccc5C)CC4)C3=O)cc2)c(C)c1 [Compound 8-2, methyl 2-methyl-4′-{8-[(3-methylpyridin-2-yl)methyl]-2,4-dioxo-1-pyrimidin-4-yl-1,3,8-triazaspiro[4.5]dec-3-yl}biphenyl-4-carboxylate]",0.5 to 20
19,"Cc1cc(C(=O)O)ccc1-c1ccc(N2C(=O)N(c3cccnn3)C3(CCN(Cc4ncccc4C)CC3)C2=O)cc1 [Compound 9-2, 2-methyl-4′-{8-[(3-methylpyridin-2-yl)methyl]-2,4-dioxo-1-pyridazin-3-yl-1,3,8-triazaspiro[4.5]dec-3-yl}biphenyl-4-carboxylic acid]",0.5 to 20
20,"COc1ccnc(CN2CCC3(CC2)C(=O)N(c2ccc(-c4ccc(C(=O)O)cc4)nc2)C(=O)N3c2cc(OC)ncn2)c1 [Compound 10-3, 4-(5-{8-[(4-methoxypyridin-2-yl)methyl]-1-(6-methoxypyrimidin-4-yl)-2,4-dioxo-1,3,8-triazaspiro[4.5]dec-3-yl}-pyridin-2-yl) benzoic acid]",0.5 to 20
21,"COc1cc(N2C(=O)N(c3ccc(-c4ccc(C(=O)O)cc4)nc3)C(=O)C23CCN(Cc2cc(O)ccn2)CC3)ncn1 [Compound 10-4, 4-(5-{8-[(4-hydroxypyridin-2-yl)methyl]-1-(6-methoxypyrimidin-4-yl)-2,4-dioxo-1,3,8-triazaspiro[4.5]dec-3-yl}-pyridin-2-yl) benzoic acid]",0.5 to 20
22,"COc1ccnc(N2C(=O)N(c3ccc(-c4ccc(C(=O)O)cc4C)nc3)C(=O)C23CCN(Cc2ncccc2C)CC3)n1 [Compound 11-2, 4-(5-{1-(4-methoxypyrimidin-2-yl)-8-[(3-methylpyridin-2-yl)methyl]-2,4-dioxo-1,3,8-triazaspiro[4.5]dec-3-yl}-pyridin-2-yl)-3-methylbenzoic acid]",0.5 to 20

# Same assay, conditions: read-out: PHD2 Binding Activity IC50
row,Structure (SMILES),IC50 [nM]
1,Cc1cccnc1CN1CCC2(CC1)C(=O)N(c1ccc(-c3ccccc3)cc1)C(=O)N2CC(=O)O [Compound 2-7],0.5 to 20
2,"O=C(O)CN1CCC2(CC1)NC(=O)N(c1ccc(-c3ccccc3)cc1)C2=O [Compound 4-1, (3-biphenyl-4-yl-2,4-dioxo-1,3,8-triazaspiro[4.5]dec-8-yl)acetic acid]",> 50
3,"Cc1cccnc1CN1CCC2(CC1)C(=O)N(c1ccc(-c3ccccc3)cc1)C(=O)N2C(=O)NC(C)(C)C(=O)O [Compound 5-3, 2-[({3-biphenyl-4-yl-8-[(3-methylpyridin-2-yl)methyl]-2,4-dioxo-1,3,8-triazaspiro[4.5]dec-1-yl}carbonyl)amino]-2-methylpropanoic acid]",0.5 to 20
4,"Cc1cccnc1CN1CCC2(CC1)C(=O)N(c1ccc(-c3ccccc3)cc1)C(=O)N2C(=O)N[C@H](C)C(=O)O [Compound 5-4, (2R)-2-[({3-biphenyl-4-yl-8-[(3-methylpyridin-2-yl)methyl]-2,4-dioxo-1,3,8-triazaspiro[4.5]dec-1-yl}carbonyl)amino]propanoic acid]",0.5 to 20
5,"Cc1cccnc1CN1CCC2(CC1)C(=O)N(c1ccc(-c3ccccc3)cc1)C(=O)N2C(=O)N[C@@H](C)C(=O)O [Compound 5-5, (2S)-2-[({3-biphenyl-4-yl-8-[(3-methylpyridin-2-yl)methyl]-2,4-dioxo-1,3,8-triazaspiro[4.5]dec-1-yl}carbonyl)amino]propanoic acid]",0.5 to 20
6,"Cc1cccnc1CN1CCC2(CC1)C(=O)N(c1ccc(-c3ccccc3)cc1)C(=O)N2C(=O)N[C@@H](CO)C(=O)O [Compound 5-6, N-({3-biphenyl-4-yl-8-[(3-methylpyridin-2-yl)methyl]-2,4-dioxo-1,3,8-triazaspiro[4.5]dec-1-yl}carbonyl)-L-serine]",0.5 to 20
7,"Cc1cccnc1CN1CCC2(CC1)C(=O)N(c1ccc(-c3ccccc3)cc1)C(=O)N2C(=O)CCC(=O)O [Compound 5-7, 4-{3-biphenyl-4-yl-8-[(3-methylpyridin-2-yl)methyl]-2,4-dioxo-1,3,8-triazaspiro[4.5]dec-1-yl}-4-oxobutanoic acid]",0.5 to 20
8,"Cc1cc(C(=O)O)ccc1-c1ccc(N2C(=O)N(CC(F)(F)F)C3(CCN(Cc4ncccc4C)CC3)C2=O)cn1 [Compound 11-3, 3-methyl-4-(5-{8-[(3-methylpyridin-2-yl)methyl]-2,4-dioxo-1-(2,2,2-trifluoroethyl)-1,3,8-triazaspiro[4.5]dec-3-yl}-pyridin-2-yl) benzoic acid]",0.5 to 20
